Results as given in patent US20220054478A1, “MINIMIZATION OF SYSTEMIC INFLAMMATION” (Ascendis Pharma Oncology Division A/S, priority 2019, published 2022).

Set-up: species or system WISTAR rats
Details: rat, in vivo, sc, 25 ug
Excerpt: Hydrogels were suspended (ca. 6% wt/v) PBST buffer at pH 7.4. […] Blood samples were withdrawn and used for plasma generation over the course of 28 d. […] Plasma concentration profiles were generated and analyzed with Phoenix WinNonlin software (Certara, Princeton, N.J., USA).

For Resiquimod [Compound 4], the “t1/2 (biphasic), first phase” value was 1.5 h and the “t1/2 (biphasic), second phase” value was 10 h.
